Measurements: patent US4470840A, “1-Triacontanol plant growth stimulator formulations” (Biochemical Research Corporation, priority 1981, dated 1984)

Columns and labels:
[1] = tested on: Tomatoes (cv. Ponderosa Red Beefsteak, Red Cherry, Rutgers VF); experiment: Field trial: marketable yield and seed size; format: in vivo; settings: for Percent increases (size of seeds) / Wt. of treated seed: 100 seeds; for Percent increases (size of seeds) / Wt. of treated seed / Fresh wt. (marketable yield) / Percent increases (marketable yield): 1-triacontanol 0.25 mg/liter; for Wt. of treated seed: control seed 0.32; for Fresh wt. (marketable yield) / Percent increases (marketable yield): pH 9 to 10
Procedure: (§1) Field trials were conducted in Northern Virginia on plots that were replicated at least five items. Plots consisted of single rows of plants in blocks of three or more plots, with treatments being assigned randomly within each block.
(§2) Plants were fertilized with the fertilizers described in Table 1, and sprayed at air temperatures listed in the same Table. Spraying was usually avoided under windy conditions to avoid drift. In the examples set forth herein, data were treated in a similar manner to those found in the greenhouse trials, with analysis of variance performed for each trial, and the use of a suitable statistical method for the analysis of results, preferably Duncan's multiple range test.

Radishes (cv. Champion) = experiment: Field trial: crop yield; format: in vivo; settings: 1-triacontanol 0.25 mg/liter, pH 9.7; for Dry wt. (crop yield): per twenty plants, without foliage
Procedure: as §1, §2

Peas (cv. Dark Skin) = experiment: Field trial: marketable yield; format: in vivo; settings: 1-triacontanol 0.25 mg/liter, pH 8.7; for Fresh wt (marketable yield): per 12 plants per plot
Procedure: as §1, §2

[2] = tested on: Hybrid Sweet Corn Seedlings (cv. Silver Queen); experiment: Lengths of stems and total plant length of seedlings sprayed Day 7; format: in vivo; settings: T = 1-triacontanol 0.1 mg/liter
[3] = tested on: Cucumbers (cv. Straight Eight, Improved White Spine); experiment: Field trial: crop yield; format: in vivo; settings: for Increase (crop yield) / Fresh wt. (crop yield): cv. Improved White Spine, TRIACON-10, 1-triacontanol 0.25 mg/liter, pH 9.8
Procedure: as §1
Plants were fertilized with the fertilizers described in Table 1, and sprayed at air temperatures listed in the same Table. Spraying was usually avoided under windy conditions to avoid drift.

[4] = tested on: Pea Seedlings (cv. Dark Skin); experiment: Greenhouse trial: dry weight of seedlings; format: in vivo, peas; settings: 1-triacontanol 0.1 mg/liter; for Dry wt.: sum of four plants
Procedure: In general, greenhouse trials were conducted as follows: eight to twelve seeds were sown per pot in Peat-Lite® Mix and received an average of 100 ml of water per day. After plants had the third true leaf (average), the various formulations were applied to the leaves as a fine mist at air temperatures listed in Table 1. Temperatures above 20° C., preferably 25°-30° C., are preferred.
The 1-triacontanol formulation most generally used consisted of a concentrate containing 5 mg of 1-triacontanol dissolved in 1 liter of acetone, with 20 ml of the concentrate being further dissolved to 1 liter with water having a pH between 8 and 10, with over a pH of 11 also being effective. The pH was adjusted with aqueous NaOH and the concentrate added just prior to spraying.
When other plant growth substances were added to the formulations, these were added either to the concentrate in the polar organic solvent or alternatively in the aqueous solution, depending on the solubility of the plant growth substance. All metal salts were added to the water used to spray the 1-triacontanol formulations. After spraying, preferably about four to nine days or more, plants were harvested with roots, and fresh weights were obtained. Plants were then dried in an oven, preferably at a temperature below 100° C., until constant weight was obtained, and dry weight values were obtained for each plot. Subtraction of the dry weights from the fresh weights gave the water uptake weights (water content) of each plot. The weights of the above mentioned seedlings were compared to the control weights to obtain the percent increases.
It is particularly advantageous to arrange each of the potted plants in size range categories corresponding to the number of replications used. For example, if five replications are employed, plants are divided into five size categories, normally measured by the height of the plants. Treatments are then assigned randomly within each block (size category). This removes the variation due to plant size for statistical purposes, as is well practiced in the art. The resulting data is analyzed using any appropriate means, which may include the least significant difference method (L.S.D. method), Duncan's multiple range test, as used here (Biometrics, 11: 1 (1955)), or other means.

[5] = cv. Ponderosa Red Beefsteak, CaCl2 5 mM, no IAA
[6] = cv. Ponderosa Red Beefsteak, CaCl2 50 mM, IAA 0.01 mM
[7] = cv. Ponderosa Red Beefsteak, CaCl2 5 mM, no IAA (Formulation 12)
[8] = cv. Ponderosa Red Beefsteak, CaCl2 50 mM, IAA 10 μM (Formulation 16)
[9] = cv. Ponderosa Red Beefsteak, previous year
[10] = cv. Red Cherry, CaCl2 5 mM, no IAA (Formulation 12)
[11] = cv. Red Cherry, CaCl2 50 mM, IAA 10 μM (Formulation 16)
[12] = cv. Rutgers VF, CaCl2 5 mM, no IAA (Formulation 12)
[13] = cv. Rutgers VF, CaCl2 50 mM, IAA 10 μM (Formulation 16)
[14] = CaCl2 50.0 mM, IAA 10 μM (Formulation 14)

CCCCCCCCCCCCCCCCCCCCCCCCCCCCCCO [1-Triacontanol, 1-triacontanol]
Percent increases (size of seeds) [1, 5]: +25%
Wt. of treated seed [1, 5]: 0.40 g
Percent increases (size of seeds) [1, 6]: +6%
Wt. of treated seed [1, 6]: 0.34 g
Fresh wt. (marketable yield) [1, 7]: 15353 g
Percent increases (marketable yield) [1, 7]: +38%
Fresh wt. (marketable yield) [1, 8]: 22283 g
Percent increases (marketable yield) [1, 8]: +45%
Early yield over controls [1, 9]: 72%
Late yield over controls [1, 9]: 67%
Fresh wt. (marketable yield) [1, 10]: 5679 g
Percent increases (marketable yield) [1, 10]: +26%
Fresh wt. (marketable yield) [1, 11]: 6225 g
Percent increases (marketable yield) [1, 11]: +38%
Fresh wt. (marketable yield) [1, 12]: 14079 g
Percent increases (marketable yield) [1, 12]: +7%
Fresh wt. (marketable yield) [1, 13]: 20880 g
Percent increases (marketable yield) [1, 13]: +59%
Percent increases (crop yield) (Radishes (cv. Champion); CaCl2 10 mM, no IAA): 32%
Dry wt. (crop yield) (Radishes (cv. Champion); CaCl2 10 mM, no IAA, control 93 g): 123 g
Percent increases (crop yield) (Radishes (cv. Champion); CaCl2 50 mM, IAA 10 μM): +69%
Dry wt. (crop yield) (Radishes (cv. Champion); CaCl2 50 mM, IAA 10 μM): 157 g
Percent increases (marketable yield) (Peas (cv. Dark Skin); CaCl2 10 mM, no IAA): +35%
Fresh wt (marketable yield) (Peas (cv. Dark Skin); CaCl2 10 mM, no IAA, control 59): 78 gm
Percent increases (marketable yield) (Peas (cv. Dark Skin); CaCl2 15 mM, no IAA): +63%
Fresh wt (marketable yield) (Peas (cv. Dark Skin); CaCl2 15 mM, no IAA): 97 gm
Percent increases (marketable yield) (Peas (cv. Dark Skin); CaCl2 50 mM, IAA 10 μM): +32%
Fresh wt (marketable yield) (Peas (cv. Dark Skin); CaCl2 50 mM, IAA 10 μM): 79 gm
Percent increases (marketable yield) (Peas (cv. Dark Skin); CaCl2 75 mM, IAA 10 μM): +69%
Fresh wt (marketable yield) (Peas (cv. Dark Skin); CaCl2 75 mM, IAA 10 μM): 100 gm
Increase in length "a" [2]: 0%
Increase in length "b" [2]: +15%
Length "a" (stem to the first leaf) ([2]; control 11.5 cm): 11.5 cm
Length "b" (total plant length) ([2]; control 25.0 cm): 28.8 cm
Increase (crop yield) ([3]; CaCl2 5 mM): +88%
Fresh wt. (crop yield) ([3]; CaCl2 5 mM, control 9575 g): 17980 g
Fresh wt. (crop yield) ([3]; CaCl2 50 mM): 11725 g
Increase (crop yield) ([3]; CaCl2 50 mM): +22%
Increase over controls (crop yield) ([3]; cv. Straight Eight, previous year, pH 8.7, CaCl2 4.5 mM): 101%
Percent increases (dry weight) ([4]; CaCl2 0.0 mM, no IAA): -5%
Dry wt. ([4]; CaCl2 0.0 mM, no IAA, control 0.83): 0.79 gm
Percent increases (dry weight) ([4]; CaCl2 1.0 mM, no IAA): +1%
Dry wt. ([4]; CaCl2 1.0 mM, no IAA): 0.84 gm
Percent increases (dry weight) ([4]; CaCl2 3.0 mM, no IAA): -7%
Dry wt. ([4]; CaCl2 3.0 mM, no IAA): 0.77 gm
Percent increases (dry weight) ([4]; CaCl2 5.0 mM, no IAA): +7%
Dry wt. ([4]; CaCl2 5.0 mM, no IAA): 0.89 gm
Percent increases (dry weight) ([4]; CaCl2 10.0 mM, no IAA): +18%
Dry wt. ([4]; CaCl2 10.0 mM, no IAA): 0.98 gm
Percent increases (dry weight) ([4]; CaCl2 15.0 mM, no IAA): +33%
Dry wt. ([4]; CaCl2 15.0 mM, no IAA): 1.10 gm
Percent increases (dry weight) [4, 14]: +46%
Dry wt. [4, 14]: 1.21 gm
